According to patent US4166765A, “Detecting Neisseria bacteria” (Corning Glass Works, priority 1977, dated 1979):

The compounds below were run on 1,2-propanediol dehydrogenase (assay: Substrate specificity of the enzyme on analogs of 1,2-propanediol using NAD). Conditions: substrate with NAD; relative to 1,2-propanediol = 100.
Format: biochemical, Neisseria
Parameters: concentration or dose not given beside the values
Procedure: The following reagents were added to 12×75 mm plastic tubes:
To each test tube was added 100 μl of a bacterial lysate. Incubations varied in time from being read immediately and continuously for 4 minutes, to allowing the assay tubes to incubate one-half hour before reading. All procedures and incubations were carried out at room temperature.
The samples were read at 340 nm (ultraviolet) on a Perkin-Elmer double beam spectrophotometer. A Honeywell Electronik 194 recorder was used to record absorbency. The tests that were read immediately and continuously for 4 minutes were allowed to record for the same time period. Those tests read after 30 minutes were not read continuously, but had their absorbencies recorded after the incubation period [Activity (A) was determined in the 4 minute monitored assay and in the 30 minute assay].
In order to examine the specificity of the substrate with respect to the enzyme, it was assayed on several analogs of 1,2-propanediol using NAD.

Going from `OCC(O)CCl` (stereo not shown) [1 chloro 2,3-propanediol] to `OCC(O)CO` [Glycerol], the “% Reactivity” value rises from 0% to 1%.

First: CC(C)O [2-propanol]
Second: CC(O)CO (stereo not shown) [1,2-propanediol]
The “% Reactivity” value of the first is lower: 0% for the first, 100% for the second.

`CCCO` [1-propanol] and `CCO` [Ethanol] are the same in “% Reactivity” value: 0% for the first, 0% for the second.

`OCCO` [1,2 ethanediol] and `OCCCO` [1,3 propanediol] are the same in “% Reactivity” value: 0% for the first, 0% for the second.

First: CCC(O)CO (stereo not shown) [1,2 butanediol]
Second: O=C(CO)CO [Dihydroxyacetone]
The “% Reactivity” value of the first is lower: 10% for the first, 21% for the second.
